# According to article PMC11904993, “Humanized Candida and NanoBiT Assays Expedite Discovery of Bdf1 Bromodomain Inhibitors With Antifungal Potential” (Advanced Science, 2025):
# Several values for one entry are separate records, joined by “and”; a condition that tells them apart may be missing. Equal values may be shown once. Read-outs that look alike come from different tables or passages of the source.
# Columns and labels:
# [1] = test system: C. glabrata strains (WT, pdr1∆ or PDR1 rescue); assay: Growth assays to assess compound efflux; format: cell-based; details: for growth relative to Solvent = 100 (Figure S10B): compound 50 µM, three replicates
# Protocol: Cells from a single colony were diluted in 0.85% NaCl before being counted using a Neubauer chamber. […] The effect of fluconazole was tested by titration on these strains under similar conditions.
# [2] = test system: IMR90 (primary fibroblast) cells; details: highest concentration tested (300 µM); 24 h
# Protocol: Cytotoxicity assays were performed as described^[ [1] ^] with minor changes. Proliferation of human cells was assessed using an MTT colorimetric assay (Cell Proliferation Kit I, Roche). HeLa (epithelial cells, ATCC number CCL‐2) and IMR90 (primary fibroblasts cells, ATCC number CCL‐186) cells were cultured in humidified atmosphere (37 °C and 5% CO2) in DMEM medium containing 10% heat inactivated fetal calf serum and 2 mM glutamine. […] Plates were incubated at 37 °C and 5% CO2 for 24 h before adding 10 mL of MTT labelling reagent (final concentration 0.5 mg mL^−1) to each well. After incubating for a further 4 h, 100 µL of the solubilization solution were added in each well. Plates were allowed to stand overnight in the incubator before measuring the absorbance at 570 nm and at 690 nm in a ClarioStar plate reader. The values of A570–A690 nm were normalized relative to that obtained with vehicle (0.2% DMSO, 0.8% ethanol) and plotted against compound concentration.
# C. krusei = assay: Growth in liquid media; format: cell-based; details: Fig 5C
# Protocol: (§1) Strains were presented in Table S8 (Supporting Information). Cells from a single colony were diluted in 0.85% NaCl before being counted using a Neubauer chamber. They were diluted to a final concentration of 6500 cells mL^−1 per well for all clinical strains of C. albicans and C. glabrata; 65 000 cells mL^−1 per well for C. auris; 13 500 cells mL^−1 per well for C. parapsilosis; 3375 cells mL^−1 per well for C. krusei and 1687.5 cells mL^−1 per well for C. tropicalis, in a sterile 96‐well plate. Cells were then grown in SC medium with or without chemical compounds at 30 °C with regular shaking. The significance of growth defects was assessed using Holm‐Sidak method by GraphPad Prism 10.
# C. auris = assay: Growth in liquid media; format: cell-based; details: Fig 5C; for Growth (%): C. auris
# Protocol: as §1
# C. parapsilosis = assay: Growth in liquid media; format: cell-based; details: Fig 5C; for Growth (%): C. parapsilosis
# Protocol: as §1
# C. tropicalis = assay: Growth in liquid media; format: cell-based; details: Fig 5C; for Growth (%): C. tropicalis
# Protocol: as §1
# [3] = test system: C. albicans expressing WT Bdf1; assay: Galleria fungal infection model, WT strain; format: in vivo, Galleria mellonella; parameters: key to survival event of one larva (1 = death 0 = no death): 1 = death; 0 = no death
# Protocol: (§2) Galleria mellonella larvae were purchased from Decathlon (La Tronche, France). They were selected in the late larval stages weighing between 300 and 400 mg. Groups of 10 larvae were injected into the right or left last pro‐leg with 10 µl of either PBS, C. albicans suspensions or antifungal drug using an insulin syringe (BDUltra‐Fine 0.3 ml). C. albicans suspensions of the WT and humanized Bdf1 strains were adjusted to 10^6 cells larva^−1. Antifungal drugs (anidulafungin 5 mg kg^−1 or I‐BET726 66 or 44 mg kg^−1) were injected once 30 min before fungal infection. An infected control group received the C. albicans inoculum and the solvent of the drug. A non‐infected control group received only PBS. After inoculation, larvae were placed in Petri dishes and incubated in the dark at 37 °C. The larvae were monitored for 5 days, and survival outcome was determined. For experiments performed at the lower (44 mg kg^−1) dose of IBET‐726, the difference in protection against infection with humanized versus WT C. albicans strains was more evident using the survival data at 40 h rather than at 100 h post‐infection. Larvae were considered dead when no response was observed following touch. All experiments were performed at least 3 times independently. The significance of survival was assessed by a Log‐rank (Mantel‐Cox) test in GraphPad Prism 10.
# C. albicans = assay: Growth of reference and clinical strains in liquid media; format: cell-based; details: for EC50: Candida albicans
# Protocol: as §1
# C. glabrata = assay: as above; format: cell-based; details: for Growth (%): C. glabrata; for EC50: Nakaseomyces glabratus
# Protocol: as §1
# [4] = test system: C. albicans expressing humanized Bdf1; assay: Galleria fungal infection model, humanized strain; format: in vivo, Galleria mellonella; parameters: key to survival event of one larva (1 = death 0 = no death): 1 = death; 0 = no death; details: for survival event of one larva (1 = death 0 = no death): Bdf1-hBD* strain
# Protocol: as §2
smiles,measurement,setting,value
"Cc1ccc(-c2nnc(C)c(NCc3ccc(C)o3)n2)cc1 [Compound 24c, 6‐methyl‐N‐((5‐methylfuran‐2‐yl)methyl)‐3‐(p‐tolyl)‐1,2,4‐triazin‐5‐amine]",activity against PDR1 deletion strain versus WT/rescue,"[1]; 50 µM (I-BET726 1 µM), 20 h",unaffected
same,growth relative to Solvent = 100 (Figure S10B),[1]; PDR1 Rescue,76.2272 and 100 and 72.1057
same,growth relative to Solvent = 100 (Figure S10B),[1]; WT,69.2689 and 72.9849 and 92.6631
same,growth relative to Solvent = 100 (Figure S10B),[1]; pdr1∆,52.2261 and 60.5623 and 93.6717
same,cytotoxicity toward IMR90 cells (MTT),[2],modest cytotoxicity
CC(=O)N1c2ccc(-c3ccc(C(=O)O)cc3)cc2C(Nc2ccc(Cl)cc2)CC1C (stereo not drawn) [I-BET726],Growth (%),C. krusei; 1.5625 µM,97% and 93%
same,Growth (%),C. krusei; 3.125 µM,102% and 92% and 91%
same,Growth (%),C. krusei; 25 µM,103% and 86% and 91%
same,Growth (%),C. auris; 1.5625 µM,91% and 92% and 90%
same,Growth (%),C. auris; 3.125 µM,85% and 86% and 87%
same,Growth (%),C. auris; 25 µM,73% and 79%
same,EC50,C. auris; Candidozyma auris,> 50 µM
same,Growth (%),C. parapsilosis; 1.5625 µM,87% and 91% and 88%
same,Growth (%),C. parapsilosis; 3.125 µM,79% and 80% and 78%
same,Growth (%),C. parapsilosis; 25 µM,58% and 59% and 57%
same,EC50,C. parapsilosis; Lodderomyces parapsilosis,~30 µM
same,Growth (%),C. tropicalis; 1.5625 µM,85% and 87% and 84%
same,Growth (%),C. tropicalis; 3.125 µM,76% and 75%
same,Growth (%),C. tropicalis; 25 µM,31% and 40% and 34%
same,EC50,C. tropicalis; Candida tropicalis,8.8 ± 1.4 µM
same,protection against infection,[3]; 44 mg kg^−1,not significant
same,survival of infected larvae,"[3]; 66 mg kg^−1, injected once 30 min before infection",≈ 100 h
same,survival event of one larva (1 = death 0 = no death),"[3]; Figure 6B, Time 10 hours",1
same,survival event of one larva (1 = death 0 = no death),"[3]; Figure 6B, Time 35 hours",1
same,survival event of one larva (1 = death 0 = no death),"[3]; Figure 6B, Time 50 hours",1
same,survival event of one larva (1 = death 0 = no death),"[3]; Figure 6B, Time 73 hours",1
same,survival event of one larva (1 = death 0 = no death),"[3]; Figure 6D, Time 17 hours",1
same,survival event of one larva (1 = death 0 = no death),"[3]; Figure 6D, Time 23 hours",1
same,survival event of one larva (1 = death 0 = no death),"[3]; Figure 6D, Time 41 hours",1 and 0
same,Growth (%),"C. albicans; C. albicans, 1.5625 µM, Fig 5C",81% and 83% and 74%
same,Growth (%),"C. albicans; C. albicans, 3.125 µM, Fig 5C",66% and 63% and 57%
same,Growth (%),"C. albicans; C. albicans, 25 µM, Fig 5C",17% and 23% and 20%
same,Growth (%),"C. albicans; C. albicans, 25 µM, Fig 5E",17% and 23% and 20%
same,EC50,"C. albicans; ATCC90028, Table S5, C. albicans ATCC90028, WT, read-out: EC50 growth inhibition",4.25 ± 0.47 µM
same,EC50,"C. albicans; Fig 5C, read-out: EC50 (μM), C. albicans",4.3 ± 0.5 µM
same,EC50,"C. albicans; Table S5, C. albicans CagR, echinocandin-resistant, not characterized, read-out: EC50 growth inhibition",4.14 ± 0.48 µM
same,EC50,"C. albicans; all eight azole- and echinocandin-resistant C. albicans clinical isolates, read-out: EC50 growth inhibition",5 to 10 µM
same,EC50,"C. albicans; read-out: EC50 growth inhibition, Table S5, C. albicans AF1, echinocandin-resistant, Fks1-HS1 (S645P)",7.13 ± 1.48 µM
same,EC50,"C. albicans; read-out: EC50 growth inhibition, Table S5, C. albicans AF2, echinocandin-resistant, Fks1-HS1 (S645P)",4.59 ± 0.95 µM
same,EC50,"C. albicans; read-out: EC50 growth inhibition, Table S5, C. albicans AF3, echinocandin-resistant, Fks1-HS1 (S645P)",6.83 ± 0.26 µM
same,EC50,"C. albicans; read-out: EC50 growth inhibition, Table S5, C. albicans CAAL74, fluconazole-resistant, Erg11 (Y132F, E266D, G448V, V488I)",5.87 ± 1.03 µM
same,EC50,"C. albicans; read-out: EC50 growth inhibition, Table S5, C. albicans DSY292, azole-resistant, Erg11 (Y132H, G464S, R467K)",3.07 ± 0.26 µM
same,EC50,"C. albicans; read-out: EC50 growth inhibition, Table S5, C. albicans DSY296, azole-resistant, Erg11 (G129A, G464S, G450E), Tac1 (N977D)",7.36 ± 0.76 µM
same,EC50,"C. albicans; read-out: EC50 growth inhibition, Table S5, C. albicans DSY2323, azole-resistant, Erg11 (S405F), Tac1 (G980E)",11.5 ± 1.7 µM
same,Growth (%),"C. albicans; strain AF1, 25 µM, Fig 5E",34% and 31% and 28%
same,Growth (%),"C. albicans; strain AF2, 25 µM, Fig 5E",26% and 28% and 29%
same,Growth (%),"C. albicans; strain AF3, 25 µM, Fig 5E",26% and 25% and 28%
same,Growth (%),"C. albicans; strain CAAL74, 3.13 µM, Fig 5D",67% and 74% and 60%
same,Growth (%),"C. albicans; strain CagR, 25 µM, Fig 5E",18% and 12%
same,Growth (%),"C. albicans; strain DSY292, 0.78 µM, Fig 5D",84% and 81% and 86%
same,Growth (%),"C. albicans; strain DSY292, 3.13 µM, Fig 5D",55% and 51%
same,Growth (%),"C. albicans; strain DSY296, 0.78 µM, Fig 5D",97% and 88% and 92%
same,Growth (%),"C. albicans; strain DSY296, 3.13 µM, Fig 5D",71% and 66% and 72%
same,Growth (%),"C. albicans; strain DSY2323, 3.13 µM, Fig 5D",85% and 88% and 76%
same,Growth (%),"C. glabrata; 1.5625 µM, Fig 5C",91% and 84% and 88%
same,Growth (%),"C. glabrata; 3.125 µM, Fig 5C",88% and 77% and 93%
same,Growth (%),"C. glabrata; 25 µM, Fig 5C",62% and 60% and 75%
same,EC50,"C. glabrata; read-out: EC50 growth inhibition, Table S5, C. glabrata DSY565, azole-resistant, Pdr1 (L280F)",1.14 ± 0.62 µM
same,EC50,"C. glabrata; read-out: EC50 growth inhibition, Table S5, C. glabrata HAB1, azole-resistant, Pdr1 (T370I)",1.66 ± 0.56 µM
same,EC50,"C. glabrata; Fig 5C, read-out: EC50 (μM), C. glabrata",12 ± 5.6 µM
same,EC50,"C. glabrata; Table S5, C. glabrata ATCC2001, WT, read-out: EC50 growth inhibition",1.52 ± 0.44 µM
same,protection against infection,"[4]; 44 mg kg^−1, humanized strain, p = 0.0115, Mantel‐Cox test",significant protection
same,survival of infected larvae,"[4]; 66 mg kg^−1, injected once 30 min before infection, humanized strain",≈ 100 h
same,survival event of one larva (1 = death 0 = no death),"[4]; Figure 6C, Time 8 hours",1
same,survival event of one larva (1 = death 0 = no death),"[4]; Figure 6C, Time 33 hours",1
same,survival event of one larva (1 = death 0 = no death),"[4]; Figure 6C, Time 57 hours",1
same,survival event of one larva (1 = death 0 = no death),"[4]; Figure 6C, Time 70 hours",1
same,survival event of one larva (1 = death 0 = no death),"[4]; Figure 6D, Time 27 hours",1
same,survival event of one larva (1 = death 0 = no death),"[4]; Figure 6D, Time 41 hours",1 and 0
